{"source": "ChEMBL document CHEMBL3272056", "about": "“Synthesis of N-hydroxythiourea” (J Med Chem, 1976)", "system": "L1210", "assay": "Antitumor activity against mouse L1210 cells at 400 mg/kg, ip", "type": "functional, organism-based", "parameters": "dose 400 mg/kg", "note": "The source made the active and inactive calls. The rule behind the calls is not given here.", "data": [{"smiles": "NC(=S)NO", "values": [{"measurement": "Activity", "result": "inactive"}]}]}
